Patent publication US7928119B2, “Use of EP4 receptor ligands in the treatment of IL-6 involved diseases” (Pfizer Inc., priority 2002, dated 2011)
Where “and” joins values, the source holds several entries; their conditions need not be identical. Equal entries are not always repeated.

Experiments:
[1] = test system: human whole blood (HWB); assay: Effects of EP agonists on the production of IL-6 in HWB; assay type: cell-based; settings: agonist 1-10 μM (up to 10 μM), 24 hrs
Protocol: Peripheral human whole blood (HWB) was collected from healthy volunteers into the sample tubes (nine volumes into one volume of 3.8% trisodium citrate, Becton Dickinson), and chilled at 4° C. until the experiment. HWB (50 μl) was put into the assay plate and mixed for 10 sec with plate mixer (intensity level at 4, TAITAC, Micromixer). The samples were placed for 3 min at room temperature, then 45 μl of AIM medium was added and mixed for 10 sec with plate mixer (intensity level at 4). The samples were placed for 3 min at room temperature. The mixture (100 μl) of 10-10000 nM each EP agonist and 100 μM argatroban were added to the samples, and mixed for 10 sec with plate mixer (intensity level at 4). The samples were incubated in 5% CO2 at 37° C. for 24 hrs. Then, the samples were stirred and centrifuged at 200 g for 10 minutes. The supernatants were collected, and the IL-6 concentration was measured by ELISA-Kit (Cyto screen).
The application of 1-10 μM Butaprost, an EP2 agonist, enhanced IL-6 production (FIG. 5). […] Effects of EP2 (butaprost), EP4 (11-deoxy-PGE1) and EP1/EP3 (sulprostone) agonists on the production of IL-6 in HWB was measured respectively. Each agonist was added to the HWB, and incubated in 5% CO2 at 37° C. for 24 hrs. The results represented the mean±s.d. of the results in triplicate. […]

[2] = test system: human PBMC; assay: PGE2 stimulation of IL-6 secretion in ConA-treated human PBMC and its inhibition by EP4 antagonists (ELISA); assay type: cell-based
Protocol: PBMC were stimulated with 5 μg/ml of Con A alone or with 10 nM to 1000 nM PGE2 at 37° C. for 24 hr. The secreted IL-6 in culture medium was measured by ELISA. Data are expressed as mean±s.d. (FIG. 1)
The PGE2 concentration-dependence of stimulation of IL-6 secretion by human PBMC without and with ConA-stimulation, and the inhibitory effect of Compound A. PBMC were stimulated with 5 μg/ml of Concanavalin A alone or with 10 nM to 1000 nM PGE2 at 37° C. in 5% CO2 for 24 hr. To see the effect of Compound A, 50 μM of Compound A was added simultaneously with ConA and PGE2, and incubated for 24 hr. Data in parenthesis are expressed % control of mitocondorial dehydrogenase activity. (FIG. 2)
Compound A and Compound B inhibited the IL-6 secretion in ConA-treated PBMC. (FIG. 3.) PBMC were incubated with 5 μg/ml of Con A, 100 nM PGE2 and various doses of EP4 antagonists at 37° C. for 24 hr. The secreted IL-6 in culture medium was measured by ELISA. Data are expressed as mean±s.d.

[3] = test system: PGE2-stimulated HWB; assay: Effects of EP4 antagonist on the production of IL-6 in PGE2-stimulated HWB; assay type: cell-based, human; settings: Compound B 320-40,000 nM, 24 hrs
Protocol: Peripheral human whole blood (HWB) was collected from healthy volunteers into the sampling tubes (nine volumes into one volume of 3.8% trisodium citrate, Becton Dickinson), and chilled at 4° C. until the experiment.
Compound B (5 μl) or vehicle (AIM medium containing 0.2% DMSO) was added into 96-well culture plates. HWB (50 μl) was put into the assay plate and mixed for 10 sec with plate mixer (intensity level at 4, TAITAC, Micromixer). The samples were placed for 3 min at room temperature, and then 45 μl of AIM medium was added and mixed for 10 sec with plate mixer (intensity level at 4). The samples were placed for 3 min at room temperature. The mixture (100 μl) of 100 nM PGE2 and 100 μM argatroban was added to the samples, and mixed for 10 sec with plate mixer (intensity level at 4). The samples were incubated in 5% CO2 at 37° C. for 24 hrs. Then, the samples were stirred and centrifuged at 200 g for 10 minutes. The supernatants were collected, and the IL-6 concentration was measured by ELISA-Kit (Cyto screen).
Compound B inhibited the PGE2-stimulated IL-6 production in a dose dependent manner (FIG. 6). Diluted human whole blood samples containing Compound B were stimulated with 10-10,000 nM of PGE2 and incubated at 37° C. for 24 hrs. The IL-6 concentration in the supernatant was determined by ELISA. […]

[4] = test system: ConA and PGE2 co-stimulated human whole blood; assay: IL-6 production in ConA and PGE2 co-stimulated human whole blood; assay type: cell-based
Protocol: Compound B (50 μl), ConA and PGE2 (50 μl, 1:1) were diluted with the AIM medium (Gibco) in the appropriate concentrations (conc.) and were placed onto 96-well culture plates (assay plates). Peripheral blood was collected from healthy volunteers (nine volumes into one volume of 3.8% trisodium citrate, Becton Dickinson). Human whole-blood samples were diluted with the same volume of AIM medium, and 100 μl of diluted-blood samples were place onto the assay plates. The final DMSO conc. of assay mixtures was 0.25%. The assay mixtures were incubated in 5% CO2 at 37° C. for 24 hrs. Then, the assay mixtures were stirred and centrifuged at 200 g for 10 minutes. The supernatants were collected, and the IL-6 concentration was measured by ELISA-Kit (Cyto screen).
PGE2 enhanced IL-6 production dose dependently from 10 to 1000 nM (FIG. 7). When blood samples were stimulated with 10, 100 and 1000 nM of PGE2, the IL-6 concentrations in the assay mixtures were 1.8˜10.8 ng/ml, 4˜20 ng/ml and 5.8˜23 ng/ml, respectively. The concentrations of PGE2 (10-1000 nM) gave sufficient IL-6 production to determine the IC50s of the EP4 antagonists. […] Diluted human whole-blood samples were stimulated with 5 μg/ml of ConA and three different concentrations of PGE2 (10-1000 nM). The IL-6 concentration in the supernatant was determined after 24 hrs of incubation at 37° C. Diluted human whole blood was co-stimulated with 5 μg/ml of ConA and 100 nM of PGE2 and incubated at 37° C. for 24 hrs. The IL-6 concentration in the supernatant was determined by ELISA.

[5] = test system: human whole blood cells; assay: IL-6 production in human whole blood cells; assay type: cell-based; settings: application of only PGE2 to human whole blood cells
Description: One embodiment of this invention is a more specific therapeutic targeting system to control IL-6 production. In addition, this system is a useful method for the detection of molecular target of atherosclerosis and IL-6 related disorders.

[6] = test system: human leukemic T cells of the HSB.2 cultured line; settings: HSB.2 cells coexpressing EP2, EP3 and EP4; cited from earlier work
[7] = test system: human whole blood (HWB); assay: PGE2-induced IL-6 production assay using human whole blood (HWB); assay type: cell-based; settings: 100 μM, 24 hrs incubation
Protocol: Peripheral human whole blood (HWB) was collected from healthy volunteers into the sample tubes (nine volumes into one volume of 3.8% trisodium citrate, Becton Dickinson), and chilled at 4° C. until the experiment. HWB (50 μl) was put into the assay plate and mixed for 10 sec with plate mixer (intensity level at 4, TAITAC, Micromixer). The samples were placed for 3 min at room temperature, then 45 μl of AIM medium was added and mixed for 10 sec with plate mixer (intensity level at 4). The samples were placed for 3 min at room temperature. The mixture (100 μl) of 10-10000 nM PGE2 and 100 μM argatroban were added to the samples, and mixed for 10 seconds with plate mixer (intensity level at 4). The samples were incubated in 5% CO2 at 37° C. for 24 hrs. Then, the samples were stirred and centrifuged at 200 g for 10 minutes. The supernatants were collected, and the IL-6 concentration was measured by ELISA-Kit (Cyto screen).
In this experiment, we have established PGE2-induced IL-6 production assay using human whole blood (HWB). To prevent fibrin synthesis, argatroban, a thrombin inhibitor, was added to the culture samples. […] Diluted human whole blood samples were stimulated with 10-10,000 nM of PGE2 and incubated at 37° C. for 24 hrs. The IL-6 concentration in the supernatant was determined by ELISA. […]

[8] = test system: fibrin formation; assay: Fibrin formation in HWB culture samples during 24 hrs incubation; design: species or system human; settings: 100 μM
Protocol: In this experiment, we have established PGE2-induced IL-6 production assay using human whole blood (HWB). To prevent fibrin synthesis, argatroban, a thrombin inhibitor, was added to the culture samples. […] Diluted human whole blood samples were stimulated with 10-10,000 nM of PGE2 and incubated at 37° C. for 24 hrs. The IL-6 concentration in the supernatant was determined by ELISA. The results represented the mean±s.d. from one representative experiment performed in triplicate.

CCCCC[C@H](O)/C=C/[C@H]1CCC(=O)[C@@H]1CCCCCCC(=O)O [11-deoxy-PGE1]
IL-6 production [1]: enhanced

CCCC1([C@H](O)C/C=C/[C@H]2[C@H](O)CC(=O)[C@@H]2CCCCCCC(=O)OC)CCC1 [Butaprost]
IL-6 production [1]: enhanced

O=C(O)c1cccc(C[C@@H]2CCCC=C2c2nc(-c3ccccc3)c(-c3ccccc3)o2)c1 [Compound B, 3-{[(1S)-2-(4,5-diphenyl-1,3-oxazol-2-yl)-2-cyclohexen-1-yl]methyl}benzoic acid]
IC50 ([2]; Homo sapiens, PBMC stimulated with 5 μg/ml ConA and 100 nM PGE2 for 24 hr, read-out: IC50 of inhibition of IL-6 production): 32 nM
PGE2-stimulated IL-6 production [3]: inhibited

CCc1nc2cc(C(C)=O)ccc2n1-c1ccc(CCNC(=O)NS(=O)(=O)c2ccc(C)cc2)cc1 [Compound C, N-[({2-[4-(5-acetyl-2-ethyl-1H-benzimidazol-1-yl)phenyl]ethyl}amino)carbonyl]-4-methylbenzenesulfonamide]
mode of inhibition of IL-6 production ([4]; ConA and PGE2 co-stimulated HWB): competitively with PGE2
inhibition of IL-6 production ([4]; ConA and PGE2 co-stimulated HWB, Compound C 16-50,000 nM): dose-dependent inhibition

CCCCC[C@H](O)/C=C/[C@H]1[C@H](O)CC(=O)[C@@H]1C/C=C\CCCC(=O)O [PGE2, Prostaglandin E2]
secretion of IL-6 ([2]; ConA unstimulated PBMC, 10-1000 nM PGE2): did not affect
IL-6 secretion further enhanced, compared with ConA stimulation without PGE2 ([2]; PBMC, 5 μg/ml ConA, 24 hr, […] PGE2 (so in the source)): 3.5 fold and 5.7 fold and 10.1 fold
IL-6 production [5]: enhanced IL-6 production to a great extent
IL-6 production ([4]; ConA-stimulated HWB, PGE2 10 to 1000 nM): enhanced
IL-6 production [6]: enhanced

CC1CNc2c(cccc2S(=O)(=O)N[C@@H](CCCNC(=N)N)C(=O)N2CC[C@@H](C)C[C@@H]2C(=O)O)C1 (some centres unmarked) [argatroban]
amount of IL-6 production [7]: did not affect
fibrin formation in the blood samples [8]: inhibited

CCCC(=O)Nc1ncnc2c1ncn2[C@@H]1O[C@@H]2COP(=O)(O)O[C@H]2[C@H]1OC(=O)CCC [dibutyryl-cAMP]
IL-6 production [6]: mimicked
